ChEMBL document CHEMBL3886280, “Nicotinic receptor compounds” (2015)

Target: Neuronal acetylcholine receptor subunit alpha-7 (Rattus norvegicus, UniProt Q05941)
Assay: Inhibition Assay: Compounds ([…]) were also evaluated for inhibition of binding to a7 nAChR using [125I]iodoMLA as previously reported in Carroll et al. The binding assays were conducted and the Ki values calculated as described in Carroll, F. I. et al., "Synthesis, nicotinic acetylcholine receptor binding, and antinociceptive properties of 2-exo-2-(2',3'-disubstituted 5'-pyridinyl)-7- …

Sequence of Neuronal acetylcholine receptor subunit alpha-7 (Q05941 whole entry): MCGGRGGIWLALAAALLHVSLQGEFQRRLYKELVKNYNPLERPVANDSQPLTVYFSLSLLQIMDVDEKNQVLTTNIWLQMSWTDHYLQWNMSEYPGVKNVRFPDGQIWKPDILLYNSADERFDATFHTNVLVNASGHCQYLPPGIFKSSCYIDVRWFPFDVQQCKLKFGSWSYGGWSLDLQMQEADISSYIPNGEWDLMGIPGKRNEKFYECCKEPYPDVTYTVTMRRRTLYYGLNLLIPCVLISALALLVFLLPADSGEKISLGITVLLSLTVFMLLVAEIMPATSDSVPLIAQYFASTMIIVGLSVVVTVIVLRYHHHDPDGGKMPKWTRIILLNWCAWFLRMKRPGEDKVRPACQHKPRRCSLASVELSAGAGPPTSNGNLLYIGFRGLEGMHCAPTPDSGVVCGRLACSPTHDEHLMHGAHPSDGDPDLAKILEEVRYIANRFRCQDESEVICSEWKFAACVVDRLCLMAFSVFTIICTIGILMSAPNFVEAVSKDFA

| SMILES | Ki [nM] |
| --- | --- |
| Fc1ncc(C2CC3CCC2N3)cc1-c1ccccc1 (racemic) | > 2000 |
| Fc1ncc(C2CC3CCC2N3)cc1-c1cccc(Cl)c1 (configuration not stated) | > 2000 |
